{"source": "paper PMC4300089", "about": "“Structure-Guided Design of Selective Epac1 and Epac2 Agonists” (PLoS Biology, 2015)", "format_in_all_cases": "biochemical", "key": {"[1]": {"target": "T1, Epac2^Δ280,K450E (Mus musculus, UniProt Q9EQZ6, K468E)", "T1 construct": "made in house", "T1 sequence (Q9EQZ6 281-993 isoform Q9EQZ6-3 K450E)": "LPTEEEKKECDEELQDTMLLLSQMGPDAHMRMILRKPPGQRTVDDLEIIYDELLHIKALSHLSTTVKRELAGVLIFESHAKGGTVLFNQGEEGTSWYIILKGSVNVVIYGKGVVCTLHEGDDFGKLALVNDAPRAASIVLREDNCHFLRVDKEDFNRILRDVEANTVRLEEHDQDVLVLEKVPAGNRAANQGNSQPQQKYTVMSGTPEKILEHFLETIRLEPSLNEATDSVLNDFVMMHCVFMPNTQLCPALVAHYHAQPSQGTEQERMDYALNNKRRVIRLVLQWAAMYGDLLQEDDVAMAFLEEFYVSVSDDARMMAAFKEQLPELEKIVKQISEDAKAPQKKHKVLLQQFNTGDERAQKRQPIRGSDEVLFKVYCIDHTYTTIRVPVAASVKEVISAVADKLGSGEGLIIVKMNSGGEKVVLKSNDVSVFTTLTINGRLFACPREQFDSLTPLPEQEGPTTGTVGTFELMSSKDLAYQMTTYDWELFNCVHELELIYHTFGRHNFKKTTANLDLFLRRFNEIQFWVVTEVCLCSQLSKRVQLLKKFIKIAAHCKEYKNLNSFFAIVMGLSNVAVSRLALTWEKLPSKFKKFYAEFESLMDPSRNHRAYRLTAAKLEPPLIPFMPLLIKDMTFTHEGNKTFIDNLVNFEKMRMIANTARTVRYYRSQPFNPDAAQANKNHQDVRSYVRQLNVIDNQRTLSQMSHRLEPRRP", "assay": "Epac activation assay, Epac2 K450E mutant", "protocol": "Murine Epac2 was used as all previous structural studies were performed with it.\nThe activity of Epac was determined by a fluorescence assay. […] The fluorescence intensity of Rap1B•mGDP is approximately twice that of free mGDP, and thus, nucleotide exchange can be observed as a decay in fluorescence upon the addition of excess unlabeled GDP."}, "[2]": {"target": "T2, PKA-IIα (Homo sapiens, UniProt P13861)", "T2 construct": "made in house", "T2 sequence (P13861 whole entry)": "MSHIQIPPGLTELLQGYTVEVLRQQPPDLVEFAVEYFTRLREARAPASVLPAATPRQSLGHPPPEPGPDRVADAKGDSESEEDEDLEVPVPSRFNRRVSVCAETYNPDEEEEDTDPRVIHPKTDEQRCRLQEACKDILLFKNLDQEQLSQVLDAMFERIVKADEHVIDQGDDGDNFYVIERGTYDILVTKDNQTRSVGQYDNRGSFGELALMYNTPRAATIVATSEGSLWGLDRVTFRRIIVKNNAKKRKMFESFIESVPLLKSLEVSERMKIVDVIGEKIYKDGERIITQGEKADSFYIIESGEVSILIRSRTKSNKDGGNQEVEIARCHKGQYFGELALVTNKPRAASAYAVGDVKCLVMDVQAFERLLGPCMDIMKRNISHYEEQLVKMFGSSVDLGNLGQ", "assay": "PKA activity assay, PKA-IIα", "conditions": "for A (PKA activity): PKAIIα", "protocol": "(§1) The recombinant human PKA catalytic subunit (Cα1) and the four human PKA regulatory subunits (RIα, RIβ, RIIα, RIIβ) were expressed, purified, and characterized as described. […] PKA holoenzymes were formed by mixing the R- and C-subunit at a molar ratio of 1.2:1 and extensive dialysis against 20 mM MOPS (pH 7.0), 150 mM NaCl, 2.5 mM β-mercaptoethanol, supplemented with 1 mM ATP and 10 mM MgCl2 for PKA-I at 4°C overnight. PKA holoenzymes were used at about 20 nM for the activation assay. The apparent activation constants (Kact) were determined by fitting the concentration-dependent activity to a sigmoid dose-response model."}, "[3]": {"target": "T3, PKA-IIβ (Homo sapiens, UniProt P31323)", "T3 construct": "made in house", "T3 sequence (P31323 whole entry)": "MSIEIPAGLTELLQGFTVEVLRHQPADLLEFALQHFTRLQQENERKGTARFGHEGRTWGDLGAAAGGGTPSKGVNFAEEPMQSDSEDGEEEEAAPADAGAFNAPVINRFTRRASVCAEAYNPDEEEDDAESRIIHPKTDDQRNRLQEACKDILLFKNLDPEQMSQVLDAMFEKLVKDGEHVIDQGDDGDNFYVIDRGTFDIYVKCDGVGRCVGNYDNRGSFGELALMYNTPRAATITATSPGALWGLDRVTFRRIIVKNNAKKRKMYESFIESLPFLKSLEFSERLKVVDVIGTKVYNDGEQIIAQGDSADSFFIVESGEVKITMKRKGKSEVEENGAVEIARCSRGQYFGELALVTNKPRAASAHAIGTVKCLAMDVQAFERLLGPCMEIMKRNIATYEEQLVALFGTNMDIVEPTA", "assay": "PKA activity assay, PKA-IIβ", "conditions": "PKAIIβ", "protocol": "as §1"}}, "data": [{"smiles": "Nc1ncnc2c1ncn2[C@@H]1O[C@@H]2COP(=O)(O)O[C@H]2[C@H]1O", "note": "[cAMP, reference compound]", "values": [{"measurement": "kobs", "setting": "[1]; 0.01 μM compound", "value": "3.01e-05", "unit": "s⁻¹"}, {"measurement": "kobs", "setting": "[1]; 0.05 μM compound", "value": "4.19e-05", "unit": "s⁻¹"}, {"measurement": "kobs", "setting": "[1]; 0.08 μM compound", "value": "5.14e-05", "unit": "s⁻¹"}, {"measurement": "kobs", "setting": "[1]; 0.1 μM compound", "value": "5.5e-05", "unit": "s⁻¹"}, {"measurement": "kobs", "setting": "[1]; 0.2 μM compound", "value": "8.25e-05", "unit": "s⁻¹"}, {"measurement": "kobs", "setting": "[1]; 0.3 μM compound", "value": "9.73e-05", "unit": "s⁻¹"}, {"measurement": "kobs", "setting": "[1]; 0.4 μM compound", "value": 0.000114, "unit": "s⁻¹"}, {"measurement": "kobs", "setting": "[1]; 0.5 μM compound", "value": 0.000124, "unit": "s⁻¹"}, {"measurement": "kobs", "setting": "[1]; 0.6 μM compound", "value": 0.000146, "unit": "s⁻¹"}, {"measurement": "kobs", "setting": "[1]; 0.7 μM compound", "value": 0.000155, "unit": "s⁻¹"}, {"measurement": "kobs", "setting": "[1]; 0.8 μM compound", "value": 0.000161, "unit": "s⁻¹"}, {"measurement": "kobs", "setting": "[1]; 1 μM compound", "value": 0.00017, "unit": "s⁻¹"}, {"measurement": "kobs", "setting": "[1]; 2 μM compound", "value": 0.000246, "unit": "s⁻¹"}, {"measurement": "kobs", "setting": "[1]; 3 μM compound", "value": 0.000274, "unit": "s⁻¹"}, {"measurement": "kobs", "setting": "[1]; 4 μM compound", "value": 0.000285, "unit": "s⁻¹"}, {"measurement": "kobs", "setting": "[1]; 5 μM compound", "value": 0.000283, "unit": "s⁻¹"}, {"measurement": "kobs", "setting": "[1]; 6 μM compound", "value": 0.000286, "unit": "s⁻¹"}, {"measurement": "kobs", "setting": "[1]; 7 μM compound", "value": 0.000293, "unit": "s⁻¹"}, {"measurement": "kobs", "setting": "[1]; 8 μM compound", "value": 0.000295, "unit": "s⁻¹"}, {"measurement": "kobs", "setting": "[1]; 10 μM compound", "value": 0.000299, "unit": "s⁻¹"}, {"measurement": "kobs", "setting": "[1]; 20 μM compound", "value": 0.000336, "unit": "s⁻¹"}, {"measurement": "kobs", "setting": "[1]; 30 μM compound", "value": 0.000329, "unit": "s⁻¹"}, {"measurement": "kobs", "setting": "[1]; 40 μM compound", "value": 0.000336, "unit": "s⁻¹"}, {"measurement": "kobs", "setting": "[1]; 50 μM compound", "value": 0.000327, "unit": "s⁻¹"}, {"measurement": "kobs", "setting": "[1]; 60 μM compound", "value": 0.000303, "unit": "s⁻¹"}, {"measurement": "kobs", "setting": "[1]; 70 μM compound", "value": 0.000306, "unit": "s⁻¹"}, {"measurement": "kobs", "setting": "[1]; 80 μM compound", "value": 0.000304, "unit": "s⁻¹"}, {"measurement": "kobs", "setting": "[1]; 100 μM compound", "value": 0.000294, "unit": "s⁻¹"}, {"measurement": "EC50", "setting": "[2]; PKA-IIα, read-out: Kact", "value": 0.08, "unit": "µM"}, {"measurement": "A (PKA activity)", "setting": "[2]; concentration 1 μM", "value": "2.29E+01", "unit": "U/mg"}, {"measurement": "A (PKA activity)", "setting": "[2]; concentration 1.00E+01 μM", "value": "2.43E+01", "unit": "U/mg"}, {"measurement": "A (PKA activity)", "setting": "[2]; concentration 1.00E+02 μM", "value": "2.52E+01", "unit": "U/mg"}, {"measurement": "A (PKA activity)", "setting": "[2]; concentration 1.00E-01 μM", "value": "1.58E+01", "unit": "U/mg"}, {"measurement": "A (PKA activity)", "setting": "[2]; concentration 1.00E-02 μM", "value": 7.553, "unit": "U/mg"}, {"measurement": "A (PKA activity)", "setting": "[2]; concentration 1.00E-03 μM", "value": 5.677, "unit": "U/mg"}, {"measurement": "A (PKA activity)", "setting": "[2]; concentration 1.00E-04 μM", "value": 5.697, "unit": "U/mg"}, {"measurement": "A (PKA activity)", "setting": "[2]; concentration 1.00E-05 μM", "value": 3.782, "unit": "U/mg"}, {"measurement": "A (PKA activity)", "setting": "[2]; concentration 2.50E+02 μM", "value": "2.55E+01", "unit": "U/mg"}, {"measurement": "A (PKA activity)", "setting": "[2]; concentration 2.50E-01 μM", "value": "1.90E+01", "unit": "U/mg"}, {"measurement": "A (PKA activity)", "setting": "[2]; concentration 2.50E-02 μM", "value": "1.02E+01", "unit": "U/mg"}, {"measurement": "A (PKA activity)", "setting": "[3]; concentration 1 μM", "value": "2.14E+01", "unit": "U/mg"}, {"measurement": "A (PKA activity)", "setting": "[3]; concentration 1.00E+01 μM", "value": "2.50E+01", "unit": "U/mg"}, {"measurement": "A (PKA activity)", "setting": "[3]; concentration 1.00E+02 μM", "value": "2.46E+01", "unit": "U/mg"}, {"measurement": "A (PKA activity)", "setting": "[3]; concentration 1.00E-01 μM", "value": "1.13E+01", "unit": "U/mg"}, {"measurement": "A (PKA activity)", "setting": "[3]; concentration 1.00E-02 μM", "value": 4.087, "unit": "U/mg"}, {"measurement": "A (PKA activity)", "setting": "[3]; concentration 1.00E-03 μM", "value": 4.309, "unit": "U/mg"}, {"measurement": "A (PKA activity)", "setting": "[3]; concentration 1.00E-04 μM", "value": 4.252, "unit": "U/mg"}, {"measurement": "A (PKA activity)", "setting": "[3]; concentration 1.00E-05 μM", "value": 2.8563, "unit": "U/mg"}, {"measurement": "A (PKA activity)", "setting": "[3]; concentration 2.50E-01 μM", "value": "1.57E+01", "unit": "U/mg"}, {"measurement": "A (PKA activity)", "setting": "[3]; concentration 2.50E-02 μM", "value": 5.477, "unit": "U/mg"}, {"measurement": "A (PKA activity)", "setting": "[3]; concentration 5.00E-01 μM", "value": "1.81E+01", "unit": "U/mg"}, {"measurement": "A (PKA activity)", "setting": "[3]; concentration 5.00E-02 μM", "value": 9.071, "unit": "U/mg"}]}]}
